Measurements published in patent US4613618A, “Method for treating disorders of lipid metabolism using benzene sulfonamides” (Choay S.A., priority 1981, dated 1986).
Like-named read-outs stand apart in the source and are kept apart here.

Assays:
[1] = system: hyperlipidemia caused by the administration of TRITON; assay: Triton test: lipid regulating activity in hyperlipidemia caused by TRITON W. R.; type: in vivo, WISTAR male rats; conditions: Rattus norvegicus, po, 250 mg/kg orally, 6 hours and/or 24 hours
Experimental: In a first series of experiments, products were tested on a hyperlipidemia caused by the administration of TRITON according to the following procedure.
The tests were carried out on groups of five WISTAR male rats whose weight varied from 150 to 175 g.
The tested products were administered, orally in the form of a 3% aqueous solution of tragacanth gum in the ratio of 1 ml per 100 g of body weight, in an amount corresponding to 250 mg/kg.
To carry out these tests, a hyperlipidemia was caused in the animals, by means of the product marketed by the ROHM and HAAS Company under the name TRITON W. R.
On this hyperlipidemia the effects obtained by the administration of the active substances according to the invention, are observed.
The tests were carried out as follows:
the rats were fasted for 18 hours, then the TRITON W. R. was administered intravenously in 10% aqueous solution in the proportion of 200 mg/kg;
simultaneously 250 mg/kg of the product under test was administered orally;
6 hours and/or 24 hours later, blood assays were carried out conventionally.
to the total cholesterol, […]

[2] = Acute toxicity, intraperitoneal, mice; conditions: mouse, in vivo, ip, intraperitoneally, read-out: lethal dose 50
Experimental: The acute toxicity is expressed by the lethal dose 50, that is to say the dose resulting in the death of 50% of the animals.
This study was carried out on mice, to which the products under test were administered intraperitoneally.
It was established as follows, for the following substances: […]

[3] = system: atherosclerosis inducing diet (cholesterol, cholic acid, vitamine D2); assay: Atherosclerosis inducing diet: biochemical exams; type: in vivo, Wistar female rats; design: CHOLESTEROL T, % reduction with respect to the control diet / CHOLESTEROL HDL, % with respect to the control diet / CHOLESTEROL LDL, % reduction with respect to the control diet / TRIGLYCERIDES, % reduction with respect to the control diet: concentration or dose not given beside the values
Experimental: (§1) In a second experimental series, tha activity of certain products according to the invention were tested on animals which had received an atherosclerosis inducing diet for a long period.
(§2) The test was carried out on Wistar female rats, of weight about 160-180 g.
(§3) The animals received food coming from the National Nutrition plant of Villemoisson-sur-Orge, France, and denoted by the reference UAR AO3, enriched in cholesterol (0.5%) and in cholic acid (0.5%).
(§4) After 15 days of the atherosclerosis inducing diet and whilst maintaining the animals on an atherosclerosis inducing diet, they were given orally for 4 days 250.000 iu/kg of vitamine D2 marketed under the name Sterogyl 25H, in solution in olive oil.
(§5) Then the products under study were administered for 4 weeks, from the end of the administration of the lesion-inducing agent.
At the end of the study, biochemical examinations were carried out on all the animals [total cholesterol, high density lipoprotein (HDL) and cholesterol low density lipoprotein (LDL), and triglycerides].
(§6) Then the pecentage reduction with respect to the diet controls and the score were calculated, that is to say the ratio of the intensity of the activity of the product tested with respect to that of the activity of clofibrate, reckoned as 1.
Table IX gives the detailed results of the biochemical examination:
(a) in % reduction with respect to the control die;
(b) as score, with respect to the reference product, clofibrate, the latter being counted as 1.

atherosclerosis lesions = assay: Atherosclerosis inducing diet: macroscopic exams (affected animals); type: in vivo, Wistar female rats
Experimental: as §1, §2, §3, §4, §5
(§7) At the end of the study, all the animals still alive were sacrificed, and various organs were removed, particularly the aorta, for histological study of the latter. Two criteria were examined: the number of atherosclerosis areas and the severity of the lesions.
as §6
Table X gives the results of macroscopic examinations:
(a) in % decrease in animals afflicted with lesions;
(b) as score with respect to the reference clofibrate, of which the score was counted as 1.

aorta = assay: Atherosclerosis inducing diet: microscopic observations (aorta, histology); type: in vivo, Wistar female rats; design: HISTOLOGICAL QUOTATION, percentage reduction with respect to the diet controls / NUMBER OF ATHEROSCLEROTIC AREAS, percentage reduction with respect to the diet controls: concentration or dose not given beside the values
Experimental: as §1, §2, §3, §4, §5, §7
Calculation of the figures was carried out in the following manner:
as regards the severity of the lesions, a quotation ranging from 0 for absence of a lesion to 5+ for the severest lesions was made, and this for each type of alteration concerned (increase of interlamellar spaces, interruption of elastic laminae, thickening of the elastic laminae, calcium deposition, mucopolysaccharide deposition); then all of the results per batch of animals were added;
as regards the number of atherosclerosis areas, by counting the latter and adding all the figures obtained per batch of animals.
as §6
Table XI gives the microscopic results with histological quotation as regards the severity of the lesions, and the number of atherosclerotic areas.

[4] = read-out: Total cholesterol, % of decrease with respect to Triton control
[5] = read-out: Total lipids, % of decrease with respect to Triton control
[6] = read-out: Triglycerides, % of decrease with respect to Triton control

Compound: Nc1ccc(S(=O)(=O)NCCCCCC(=O)O)cc1 [compound 665]
- change in vivo at 250 mg/kg [1, 4]: -15%
- change in vivo at 250 mg/kg [1, 5]: -30%
- change in vivo at 250 mg/kg [1, 6]: -20%
- LD50 [2]: > 6400 mg/kg

Compound: O=C(O)CCCCCNS(=O)(=O)c1cccc([N+](=O)[O-])c1 [compound 675]
- change in vivo at 250 mg/kg [1, 4]: -19%
- change in vivo at 250 mg/kg [1, 5]: -45%
- change in vivo at 250 mg/kg [1, 6]: -27%
- LD50 [2]: 930 mg/kg

Compound: CCOC(=O)CCCCCCCCCCNS(=O)(=O)c1cccc([N+](=O)[O-])c1 [compound 676]
- change in vivo at 250 mg/kg [1, 4]: -10%
- change in vivo at 250 mg/kg [1, 5]: -43%
- change in vivo at 250 mg/kg [1, 6]: -24%
- LD50 [2]: > 6400 mg/kg

Compound: CCOC(=O)CCCNS(=O)(=O)c1cccc([N+](=O)[O-])c1 [compound 679]
- change in vivo at 250 mg/kg [1, 4]: -30%
- change in vivo at 250 mg/kg [1, 5]: -61%
- change in vivo at 250 mg/kg [1, 6]: -34%
- TRIGLYCERIDES, % reduction with respect to the control diet ([3]; 4 weeks administration): 0%
- CHOLESTEROL HDL, % with respect to the control diet ([3]; HDL, 4 weeks administration): +58,33%
- CHOLESTEROL LDL, % reduction with respect to the control diet ([3]; LDL, 4 weeks administration): -60,14%
- CHOLESTEROL HDL, Score with respect to clofibrate ([3]; clofibrate counted as 1): 0,56
- CHOLESTEROL LDL, Score with respect to clofibrate ([3]; clofibrate counted as 1): 1,09
- CHOLESTEROL T, Score with respect to clofibrate ([3]; clofibrate counted as 1): 1,09
- TRIGLYCERIDES, Score with respect to clofibrate ([3]; clofibrate counted as 1): 0
- CHOLESTEROL T, % reduction with respect to the control diet ([3]; total cholesterol, 4 weeks administration): -53,13%
- % decrease in animals afflicted with lesions (atherosclerosis lesions): 7,14%
- Score with respect to the reference clofibrate (animals afflicted with lesions) (atherosclerosis lesions; clofibrate counted as 1): 0,39
- AFFECTED ANIMALS % (atherosclerosis lesions; macroscopic exams, TEM-diet 100): 92,86%
- NUMBER OF ATHEROSCLEROTIC AREAS, percentage reduction with respect to the diet controls (aorta): 48,57%
- NUMBER OF ATHEROSCLEROTIC AREAS (aorta; TEM-diet 160): 82%
- HISTOLOGICAL QUOTATION, score with respect to clofibrate (aorta; clofibrate counted as 1): 0,64
- NUMBER OF ATHEROSCLEROTIC AREAS, score with respect to clofibrate (aorta; clofibrate counted as 1): 0,88
- HISTOLOGICAL QUOTATION, percentage reduction with respect to the diet controls (aorta; severity of the lesions): 39,97%
- HISTOLOGICAL QUOTATION (aorta; severity of the lesions, TEM-diet 132): 79%

Compound: CCOC(=O)CCCCCCCCCCNS(=O)(=O)c1ccc(OC)cc1 [compound 729]
- change in vivo at 250 mg/kg [1, 6]: -17%
- LD50 [2]: > 6400 mg/kg
